pIC50: −log10 of the molar value.
What follows are compounds tested against T1, SAE (Homo sapiens, UniProt Q9UBT2) (assay: SUMO IF: in vitro inhibitory activity assay against SAE in HCT116 cells (SUMO-2/3 immunofluorescence)). Conditions: class symbols, 6 h at 37° C.
T1 construct: endogenous in cells; host or cells: HCT116
T1 sequence (Q9UBT2 1-640): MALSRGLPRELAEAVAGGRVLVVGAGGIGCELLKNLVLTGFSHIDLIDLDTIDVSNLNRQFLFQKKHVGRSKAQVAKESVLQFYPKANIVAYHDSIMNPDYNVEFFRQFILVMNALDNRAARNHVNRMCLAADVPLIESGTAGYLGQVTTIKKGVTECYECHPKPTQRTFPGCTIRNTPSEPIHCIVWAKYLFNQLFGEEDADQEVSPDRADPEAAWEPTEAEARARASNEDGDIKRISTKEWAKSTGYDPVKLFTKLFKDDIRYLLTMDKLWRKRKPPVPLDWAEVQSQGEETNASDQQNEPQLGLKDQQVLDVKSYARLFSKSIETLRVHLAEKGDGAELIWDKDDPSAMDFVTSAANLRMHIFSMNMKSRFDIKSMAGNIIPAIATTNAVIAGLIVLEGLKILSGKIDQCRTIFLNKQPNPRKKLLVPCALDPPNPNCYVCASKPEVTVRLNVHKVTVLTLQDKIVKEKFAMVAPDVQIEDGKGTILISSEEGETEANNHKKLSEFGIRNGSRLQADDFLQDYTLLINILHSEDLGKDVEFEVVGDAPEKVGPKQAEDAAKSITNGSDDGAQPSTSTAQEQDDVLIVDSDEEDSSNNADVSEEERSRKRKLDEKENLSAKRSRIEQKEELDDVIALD
T1 sequence (Q9UBE0 1-346): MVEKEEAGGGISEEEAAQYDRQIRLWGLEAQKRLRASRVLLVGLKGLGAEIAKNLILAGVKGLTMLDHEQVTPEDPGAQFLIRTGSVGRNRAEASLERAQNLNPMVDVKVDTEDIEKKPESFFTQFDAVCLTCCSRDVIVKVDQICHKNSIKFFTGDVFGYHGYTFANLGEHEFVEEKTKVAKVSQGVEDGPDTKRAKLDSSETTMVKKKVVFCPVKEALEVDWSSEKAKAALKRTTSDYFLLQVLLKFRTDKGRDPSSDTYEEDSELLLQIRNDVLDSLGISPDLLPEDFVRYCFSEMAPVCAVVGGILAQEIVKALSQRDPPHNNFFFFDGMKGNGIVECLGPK
Assay type: cell-based
Procedure: Biological Example 1. In Vitro Inhibitory Activity Assay of Compounds of the Present Disclosure Against SAE
HCT116 cells were seeded into a 96-well black transparent bottom plate at about 20000/well with 90 μL per well. The cells were incubated at 37° C. overnight for 24 h. The test compounds were 10-fold diluted to give a final concentration, and 10 μL of the diluted compounds was added to each well of the cell culture plate. The mixture was incubated at 37° C. for 6 h. The cells were then washed gently, the culture medium was discarded, and the cells were washed once with 200 μL of 0.1% PBST. 50 μL of 4% PFA was added to each well, and the cells were immobilized at room temperature for 20 min, and then washed with PBS 2-3 times. 50 μL of 0.2% Triton X-100 was added to each well, and the cells were left to stand at room temperature for 15 min and washed with 0.1% PBST 3 times. 100 μL of 3% BSA (0.6 g BSA+20 mL PBS) was added to each well, and the mixture was blocked at 37° C. for 30 min. After the blocking was completed, the liquid was removed and a primary antibody (SUMO-2/3 (18H8) Rabbit mAb, 1:400 dilution) was prepared with 1% BSA. 30 μL of the diluted primary antibody was added to each well, and the mixture was incubated at 4° C. overnight. The cells were washed 3 times with 200 μL of 0.1% PBST. A FITC secondary antibody (Fluorescein (FITC)-conjugated Affinipure Goat Anti-Rabbit IgG (H+L), 1:300 dilution) was further prepared with 1% BSA, and 40 μL of the diluted secondary antibody was added to each well. The mixture was incubated at room temperature in the dark for 2 h, and then the cells were washed 4 times with 0.1% PBST. The fluorescence signal of the sample was detected and compared to the DMSO group, and the inhibition rate and IC50 were calculated.

Row | Structure (SMILES) | pIC50
1 | CCN1Cc2sc(C(=O)c3cncnc3N[C@H]3C[C@H](O)[C@@H](COS(N)(=O)=O)[C@@H]3F)cc2[C@]2(C1)OCCc1ccc(Cl)cc12 [Compound 731] | ≥ 7.30
2 | NS(=O)(=O)CC[C@H]1[C@H](F)[C@@H](Nc2ncncc2C(=O)c2cc3c(s2)CC[C@]32NCCc3ccc(Cl)cc32)C[C@@H]1O [Compound 642] | 6.70 to 7.30
3 | NS(=O)(=O)OC[C@H]1[C@H](F)[C@@H](Nc2ncncc2C(=O)c2cc3c(s2)COCC32NCCc3c(Cl)cc(Cl)cc32)C[C@@H]1O (stereo partly shown) [Compound 564] | 6.70 to 7.30
4 | NS(=O)(=O)OC[C@H]1[C@H](F)[C@@H](Nc2ncncc2C(=O)c2cc3c(s2)CCCC32NCCc3ccc(C(F)(F)F)cc32)C[C@@H]1O (stereo partly shown) [Compound 109] | 6.70 to 7.30
5 | NS(=O)(=O)OC[C@H]1[C@H](F)[C@@H](Nc2ncncc2C(=O)c2cc3c(s2)CN(C2CC2)C[C@@]32OCCc3ccc(F)cc32)C[C@@H]1O [Compound 739] | < 6.70
6 | NS(=O)(=O)OC[C@H]1[C@H](F)[C@@H](Nc2ncncc2C(=O)c2cc3c(s2)CC[C@@]32OCCc3ccc(F)cc32)C[C@@H]1O [Compound 748] | < 6.70
7 | N#Cc1cc2c(cc1Cl)[C@@]1(CCc3sc(C(=O)c4cncnc4N[C@H]4C[C@H](O)[C@@H](COS(N)(=O)=O)[C@@H]4F)cc31)NCC2 [Compound 695] | ≥ 7.30
8 | NS(=O)(=O)OC[C@H]1[C@H](F)[C@@H](Nc2ncncc2C(=O)c2cc3c(s2)CCC[C@@]32NC(=O)Cc3ccc(Cl)cc32)C[C@@H]1O [Compound 628] | < 6.70
9 | NS(=O)(=O)OC[C@H]1[C@H](F)[C@@H](Nc2ncncc2C(=O)c2cc3c(s2)CCC32NCCc3cc(Cl)ncc32)C[C@@H]1O (stereo partly shown) [Compound 161] | 6.70 to 7.30
10 | COc1ccc2c(c1)[C@@]1(CCc3sc(C(=O)c4cncnc4N[C@H]4C[C@H](O)[C@@H](COS(N)(=O)=O)[C@@H]4F)cc31)NCC2 [Compound 689] | 6.70 to 7.30
11 | CCN1Cc2sc(C(=O)c3cncnc3N[C@H]3C[C@H](O)[C@@H](COS(N)(=O)=O)[C@@H]3F)cc2[C@]2(C1)OCCc1ccc(F)cc12 [Compound 728] | ≥ 7.30
12 | N#Cc1cc2c(cc1Cl)C1(CCc3sc(C(=O)c4cncnc4N[C@H]4C[C@H](O)[C@@H](COS(N)(=O)=O)[C@@H]4F)cc31)NCC2 (stereo partly shown) [Compound 156] | 6.70 to 7.30
13 | Cc1cc2c(cc1Cl)C(c1cc(C(=O)c3cncnc3N[C@H]3C[C@H](O)[C@@H](COS(N)(=O)=O)[C@@H]3F)sc1C)NCC2 (stereo partly shown) [Compound 248] | 6.70 to 7.30
14 | C=CCN1Cc2sc(C(=O)c3cncnc3N[C@H]3C[C@H](O)[C@@H](COS(N)(=O)=O)[C@@H]3F)cc2C2(C1)NCCc1ccc(Cl)cc12 (stereo partly shown) [Compound 654] | ≥ 7.30
15 | Cc1cc2c(cc1Cl)C1(CCc3sc(C(=O)c4cncnc4N[C@H]4C[C@H](O)[C@@H](COS(N)(=O)=O)[C@@H]4F)cc31)NCC2 (stereo partly shown) [Compound 155] | 6.70 to 7.30
16 | COc1cc2c(cc1Cl)C(c1cc(C(=O)c3cncnc3N[C@H]3C[C@H](O)[C@@H](COS(N)(=O)=O)[C@@H]3F)sc1C)NCC2 (stereo partly shown) [Compound 250] | 6.70 to 7.30
17 | NS(=O)(=O)OC[C@H]1[C@H](F)[C@@H](Nc2ncncc2C(=O)c2cc3c(s2)CSC[C@]32NCCc3ccc(Cl)nc32)C[C@@H]1O [Compound 611] | ≥ 7.30
18 | CCN1Cc2sc(C(=O)c3cncnc3N[C@H]3C[C@H](O)[C@@H](COS(N)(=O)=O)[C@@H]3F)cc2C2(C1)OCCc1ccc(F)cc12 (stereo partly shown) [Compound 726] | 6.70 to 7.30

Row | Structure (SMILES) | pIC50
19 | NS(=O)(=O)OC[C@H]1[C@H](F)[C@@H](Nc2ncncc2C(=O)c2cc3c(s2)CCC[C@]32NCCc3cc(F)c(Cl)cc32)C[C@@H]1O [Compound 671] | ≥ 7.30
20 | NS(=O)(=O)OC[C@H]1[C@H](F)[C@@H](Nc2ncncc2C(=O)c2cc3c(s2)OCC32NCCc3ccccc32)C[C@@H]1O (stereo partly shown) [Compound 139] | < 6.70
21 | NS(=O)(=O)OC[C@H]1[C@H](F)[C@@H](Nc2ncncc2C(=O)c2cc3c(s2)C(=O)CC32NCCc3ccc(Cl)cc32)C[C@@H]1O (stereo partly shown) [Compound 630] | 6.70 to 7.30
22 | CCN1Cc2sc(C(=O)c3cncnc3N[C@H]3C[C@H](O)[C@@H](COS(N)(=O)=O)[C@@H]3F)cc2[C@@]2(C1)OCCc1ccc(Cl)cc12 [Compound 730] | < 6.70
23 | NS(=O)(=O)OC[C@H]1[C@H](F)[C@@H](Nc2ncncc2C(=O)c2cc3c(s2)C(=O)C[C@]32NCCc3ccc(Cl)cc32)C[C@@H]1O [Compound 632] | 6.70 to 7.30
24 | NS(=O)(=O)OC[C@H]1[C@H](F)[C@@H](Nc2ncncc2C(=O)c2cc3c(s2)OC[C@@]32NCCc3ccc(F)cc32)C[C@@H]1O [Compound 143] | < 6.70
25 | NS(=O)(=O)OC[C@H]1[C@H](F)[C@@H](Nc2ncncc2C(=O)c2cc3c(s2)CCC32NCCc3cc(F)c(Cl)c(F)c32)C[C@@H]1O (stereo partly shown) [Compound 158] | 6.70 to 7.30
26 | NS(=O)(=O)OC[C@H]1[C@H](F)[C@@H](Nc2ncncc2C(=O)c2cc3c(s2)CCCC32NCC3(CC3)c3ccc(Cl)cc32)C[C@@H]1O (stereo partly shown) [Compound 123] | 6.70 to 7.30
27 | NS(=O)(=O)OC[C@H]1[C@H](F)[C@@H](Nc2ncncc2C(=O)c2cc3c(s2)CSC[C@@]32NCCc3cnc(Cl)cc32)C[C@@H]1O [Compound 607] | < 6.70
28 | NS(=O)(=O)OC[C@H]1[C@H](F)[C@@H](Nc2ncncc2C(=O)c2cc3c(s2)CCCC32NCCc3ncc(Cl)cc32)C[C@@H]1O (stereo partly shown) [Compound 603] | 6.70 to 7.30
29 | NS(=O)(=O)OC[C@H]1[C@H](F)[C@@H](Nc2ncncc2C(=O)c2cc(C3NCCc4ccc(Cl)cc43)c(C(F)(F)F)s2)C[C@@H]1O (stereo partly shown) [Compound 268] | 6.70 to 7.30
30 | NS(=O)(=O)OC[C@H]1[C@H](F)[C@@H](Nc2ncncc2C(=O)c2cc3c(s2)COCC32NCCc3cc(F)c(Cl)cc32)C[C@@H]1O (stereo partly shown) [Compound 570] | 6.70 to 7.30
31 | N#Cc1ccc2c(c1)C1(C=Cc3sc(C(=O)c4cncnc4N[C@H]4C[C@H](O)[C@@H](COS(N)(=O)=O)[C@@H]4F)cc31)OCC2 (stereo partly shown) [Compound 762] | 6.70 to 7.30
32 | NS(=O)(=O)OC[C@H]1[C@H](F)[C@@H](Nc2ncncc2C(=O)c2cc3c(s2)COC[C@@]32NCCc3ccc(F)cc32)C[C@@H]1O [Compound 101] | < 6.70
33 | NS(=O)(=O)OC[C@H]1[C@H](F)[C@@H](Nc2ncncc2C(=O)c2cc3c(s2)CSCC32NCCc3ccc(Cl)cc32)C[C@@H]1O (stereo partly shown) [Compound 300] | ≥ 7.30
34 | NS(=O)(=O)OC[C@H]1[C@H](F)[C@@H](Nc2ncncc2C(=O)c2cc3c(s2)C(F)(F)C[C@@]32NCCc3ccc(F)cc32)C[C@@H]1O [Compound 625] | < 6.70
35 | NS(=O)(=O)CC[C@H]1[C@H](F)[C@@H](Nc2ncncc2C(=O)c2cc3c(s2)C=C[C@@]32NCCc3ccc(Cl)cc32)C[C@@H]1O [Compound 639] | < 6.70

Same assay, conditions: numeric values, 6 h at 37° C.

Row | Structure (SMILES) | pIC50
36 | C=CCN1Cc2sc(C(=O)c3cncnc3N[C@H]3C[C@H](O)[C@@H](COS(N)(=O)=O)[C@@H]3F)cc2[C@@]2(C1)NCCc1ccc(Cl)cc12 [Compound 655] | < 6.00
37 | NS(=O)(=O)OC[C@H]1[C@H](F)[C@@H](Nc2ncncc2C(=O)c2cc3c(s2)CC[C@]32NCCc3ccc(F)cc32)C[C@@H]1O [Compound 135] | 7.31
38 | CN1Cc2sc(C(=O)c3cncnc3N[C@H]3C[C@H](O)[C@@H](COS(N)(=O)=O)[C@@H]3F)cc2[C@]2(C1)NCCc1ccc(Cl)cc12 [Compound 578] | 7.53
39 | CCN1Cc2sc(C(=O)c3cncnc3N[C@H]3C[C@H](O)[C@@H](COS(N)(=O)=O)[C@@H]3F)cc2[C@]2(C1)NCCc1ccc(Cl)cc12 [Compound 647] | 7.70
40 | Cc1sc(C(=O)c2cncnc2N[C@H]2C[C@H](O)[C@@H](COS(N)(=O)=O)[C@@H]2F)cc1[C@H]1NCCc2ccc(Cl)cc21 [Compound 234] | < 6.00

— patent US20260297109A1, “COMPOUNDS AS SUMO ACTIVATING ENZYME INHIBITORS” (WIGEN BIOMEDICINE TECHNOLOGY (SHANGHAI) CO., LTD., priority 2022, published 2026)
